Assay results as given in ChEMBL document CHEMBL6121055, “Strategic Mutations in Designer Native Peptides Combat NLRP3 Inflammasome Activation in Neurodegenerative Disorders” (J Med Chem, 2025).
Active and inactive are the calls of the source. The calls are words filed in the database; no cut-off is given here. Residues, ends and D or L forms follow the SMILES beside them.

Columns and labels:
N9 [1] = experiment: Inhibition of NLRP3 inflammasome activation in LPS/ATP-stimulated mouse N9 cells assessed as reduction in IL-1beta mRNA expression by measuring remaining activity at 20 uM by qRT-PCR analysis relative to control; type: cell-based
[2] = Stability of compound in human serum at 100 uM measured over 24 hrs by RP-HPLC analysis; type: ADME, cell-free
N9 [3] = experiment: (§1) Inhibition of NLRP3 inflammasome activation in LPS/ATP-stimulated mouse N9 cells assessed as inhibition of ASC speck formation at 20 to 30 uM preincubated with LPS for 4 hrs followed by compound addition by 30 mins and measured after 45 mins of ATP stimulation by DAPI staining based immunofluorescence analysis; type: cell-based; settings: dose 20-30 µM, time 75.0 min
N9 [4] = experiment: Inhibition of NLRP3 inflammasome activation mediated in LPS/tau-stimulated mouse N9 cells assessed as increase in mitochondrial membrane potential by flow cytometric analysis; type: cell-based; settings: dose 5-30 µM
N9 [5] = experiment: Inhibition of NLRP3 inflammasome activation mediated pyroptosis in LPS/alpha-synuclein-stimulated mouse N9 cells assessed as reduction in cell death at 5 to 30 uM by MTT assay; type: cell-based; settings: dose 5-30 µM
N9 [6] = experiment: Inhibition of NLRP3 inflammasome activation in LPS/ATP-stimulated mouse N9 cells assessed as increase in mitochondrial membrane potential preincubated with LPS for 4 hrs followed by compound addition for 30 mins and measured after ATP stimulation for 1 hrs by Rhodamine 123 staining based flow cytometric analysis; type: cell-based; settings: dose 10-30 µM, time 1.5 hrs
N9 [7] = experiment: Inhibition of NLRP3 inflammasome activation in LPS/ATP-stimulated mouse N9 cells assessed as inhibition of GSDMD cleavage by DAPI staining based immunofluorescence analysis; type: cell-based; settings: dose 10-20 µM
N9 [8] = experiment: Inhibition of NLRP3 inflammasome activation mediated in LPS/tau-stimulated mouse N9 cells assessed as decrease in mitochondrial ROS generation by flow cytometric analysis; type: cell-based; settings: dose 5-30 µM
N9 [9] = experiment: Inhibition of NLRP3 inflammasome activation mediated ROS production in LPS/ATP-stimulated mouse N9 cells preincubated with LPS for 4 hrs followed by compound addition for 30 mins and measured after ATP stimulation for 1 hrs by DCFDA staining based flow cytometric analysis; type: cell-based; settings: dose 10-30 µM, time 1.5 hrs
N9 [10] = experiment: Inhibition of NLRP3 inflammasome activation in LPS/amyloid-beta-stimulated mouse N9 cells assessed as reduction in IL-1beta secretion at 10 to 20 uM preincubated with LPS for 4 hrs followed by compound addition for 30 mins and measured after amyloid-beta stimulation for 16 hrs by ELISA; type: cell-based; settings: dose 10-20 µM, time 16.5 hrs
N9 [11] = experiment: as §1, with “LPS/alpha-synuclein-stimulated” for “LPS/ATP-stimulated”, “formation” for “formation at 20 to 30 uM”, “24 hrs” for “45 mins”, “alpha-synuclein” for “ATP”; type: cell-based; settings: dose 10-20 µM, time 24.5 hrs
N9 [12] = experiment: Inhibition of NLRP3 inflammasome activation in LPS/ATP-stimulated mouse N9 cells assessed as increase in intracellular chloride level preincubated with LPS for 4 hrs followed by compound addition for 30 mins and measured after ATP stimulation for 50 mins by MQAE dye based analysis; type: cell-based; settings: time 80.0 min
N9 [13] = experiment: Inhibition of NLRP3 inflammasome activation mediated pyroptosis in LPS/ATP-stimulated mouse N9 cells assessed as reduction in number of PI-positive cells preincubated with compound and LPS for 4 hrs followed by ATP addition and measured after 24 hrs by calcein AM/PI staining based confocal imaging analysis; type: cell-based; settings: dose 5-20 µM, time 28.0 hrs
[14] = biological target: T1, Apoptosis-associated speck-like protein containing a CARD (Homo sapiens, UniProt Q9ULZ3); experiment: Binding affinity to ASC (unknown origin) assessed as shift in ASC protein band at 0.5 to 2 uM by native PAGE analysis; settings: dose 0.5-2 µM
T1 sequence (Q9ULZ3 whole entry): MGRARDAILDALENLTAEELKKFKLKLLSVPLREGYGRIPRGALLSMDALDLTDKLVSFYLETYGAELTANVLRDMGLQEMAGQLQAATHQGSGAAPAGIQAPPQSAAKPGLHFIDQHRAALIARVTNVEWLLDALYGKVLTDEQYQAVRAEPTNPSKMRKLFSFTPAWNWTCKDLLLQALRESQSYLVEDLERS

[15] = biological target: T1, Apoptosis-associated speck-like protein containing a CARD; experiment: Binding affinity to Alexa647-labeled ASC (unknown origin) assessed as equilibrium dissociation constant incubated for 30 mins by MST analysis
N9 [16] = experiment: Inhibition of NLRP3 inflammasome activation in LPS/ATP-stimulated mouse N9 cells assessed as increase in intracellular chloride level at 5 to 30 uM preincubated with LPS for 4 hrs followed by compound addition for 30 mins and measured after ATP stimulation for 45 mins by MQAE dye based analysis; type: cell-based; settings: dose 5-30 µM, time 75.0 min
N9 [17] = experiment: Inhibition of NLRP3 inflammasome activation mediated in LPS/amyloid-beta-stimulated mouse N9 cells assessed as increase in mitochondrial membrane potential by flow cytometric analysis; type: cell-based; settings: dose 5-30 µM
[18] = Cytotoxicity against mouse N9 cells assessed as reduction in cell viability at 100 uM incubated for 24 hrs by MTT assay; type: toxicity, cell-based; settings: n9, 24 h
N9 [19] = experiment: Inhibition of NLRP3 inflammasome activation mediated in LPS/amyloid-beta-stimulated mouse N9 cells assessed as decrease in mitochondrial ROS generation by flow cytometric analysis; type: cell-based; settings: dose 5-30 µM
N9 [20] = experiment: Inhibition of NLRP3 inflammasome activation mediated pyroptosis in LPS/ATP-stimulated mouse N9 cells assessed as reduction in cell death preincubated with compound followed by LPS stimulation by MTT assay; type: cell-based; settings: dose 5-20 µM
N9 [21] = experiment: Inhibition of NLRP3 inflammasome activation in LPS/ATP-stimulated mouse N9 cells assessed as reduction in IL-1beta secretion at 10 to 20 uM preincubated with LPS for 4 hrs followed by compound addition for 30 mins and measured after ATP stimulation for 45 mins by ELISA; type: cell-based; settings: dose 10-20 µM, time 75.0 min
N9 [22] = experiment: Effect on TNF-alpha mRNA expression in LPS/ATP-stimulated mouse N9 cells at 1 to 100 uM by qRT-PCR analysis; type: functional, cell-based; settings: dose 1-100 µM
N9 [23] = experiment: Inhibition of AIM2 inflammasome activation mediated pyroptosis in LPS/poly(dA:dT)-stimulated mouse N9 cells assessed as reduction in cell death at 50 uM by MTT assay; type: cell-based
N9 [24] = experiment: Inhibition of NLRP3 inflammasome activation mediated pyroptosis in LPS/ATP-stimulated mouse N9 cells assessed as reduction in cell death measured after 24 hrs by MTT assay; type: cell-based; settings: dose 5-30 µM
N9 [25] = experiment: as §1, with “LPS/amyloid-beta-stimulated” for “LPS/ATP-stimulated”, “formation” for “formation at 20 to 30 uM”, “16 hrs” for “45 mins”, “amyloid-beta” for “ATP”; type: cell-based; settings: dose 10-20 µM, time 16.5 hrs
N9 [26] = experiment: Inhibition of NLRP3 inflammasome activation mediated mitochondrial damage in LPS/ATP-stimulated mouse N9 cells assessed as normal tubular structure of mitochondria at 10 to 20 uM by […] staining based confocal microscopic analysis; settings: dose 10-20 µM
HEK-293T = experiment: Cytotoxicity against HEK293T cells assessed as reduction in cell viability upto 100 uM measured after 24 hrs by MTT assay; type: toxicity, cell-based; settings: human
N9 [27] = experiment: Inhibition of NLRP3 inflammasome activation in LPS/ATP-stimulated mouse N9 cells assessed as increase in intracellular potassium level at 10 to 25 uM preincubated with LPS for 4 hrs followed by compound addition for 30 mins and measured after ATP stimulation for 1 hrs by ICP-OES analysis; type: cell-based; settings: dose 10-25 µM, time 1.5 hrs
[28] = Inhibition of NLRP3 inflammasome activation in LPS/ATP-stimulated mouse N9 cells assessed as inhibition of caspase-1 mRNA expression by qRT-PCR analysis; type: cell-based
N9 [29] = experiment: Inhibition of NLRP3 inflammasome activation mediated in LPS/alpha-synuclein-stimulated mouse N9 cells assessed as decrease in mitochondrial ROS generation by flow cytometric analysis; type: cell-based; settings: dose 5-30 µM
N9 [30] = experiment: Inhibition of NLRP3 inflammasome activation mediated in LPS/alpha-synuclein-stimulated mouse N9 cells assessed as increase in mitochondrial membrane potential by flow cytometric analysis; type: cell-based; settings: dose 5-30 µM
[31] = Stability of compound in fetal bovine serum at 100 uM measured after 48 hrs by RP-HPLC analysis; type: ADME, cell-free, Bos taurus; settings: cattle

In the case of `CC[C@H](C)[C@H](NC(=O)[C@H](C)NC(=O)[C@H](C)NC(=O)[C@H](CC(C)C)NC(=O)[C@@H](NC(=O)[C@H](Cc1c[nH]c2ccccc12)NC(=O)[C@@H](N)C(C)C)[C@@H](C)CC)C(=O)N[C@@H](CC(N)=O)C(=O)N[C@@H](CCCNC(=N)N)C(=O)N[C@@H](CCCNC(=N)N)C(=O)O` (H-VWILAAINRR-OH), the Activity (N9 [1]) is reported as 50%, the Stability [2] is reported as “Stable” and the inhibition (N9 [3]) is reported as “Active”. The inhibition (N9 [4]) was “Dose-dependent-effect”, the inhibition (N9 [5]) was “Active” and the inhibition (N9 [6]) was “Dose-dependent-effect”. For the same molecule, the inhibition (N9 [7]) was “Dose-dependent-effect”, the inhibition (N9 [8]) was “Dose-dependent-effect” and the inhibition (N9 [9]) was “Dose-dependent-effect”. For the same molecule, the inhibition (N9 [10]) was “Dose-dependent-effect”, the inhibition (N9 [11]) was “Dose-dependent-effect” and the inhibition (N9 [12]) was “Active”. The inhibition (N9 [13]) was “Dose-dependent-effect”, the Activity [14] was “Active” and the Kd [15] was ~0.149 µM. For the same molecule, the inhibition (N9 [16]) was “Active”, the inhibition (N9 [17]) was “Dose-dependent-effect” and the Activity [18] was “Non-toxic”. For the same molecule, the inhibition (N9 [19]) was “Dose-dependent-effect”, the inhibition (N9 [20]) was “Dose-dependent-effect” and the inhibition (N9 [21]) was “Active”. The Activity (N9 [22]) was “inactive”, the inhibition (N9 [23]) was “Active” and the inhibition (N9 [24]) was “Dose-dependent-effect”. For the same molecule, the inhibition (N9 [25]) was “Dose-dependent-effect”, the inhibition (N9 [26]) was “Active” and the Activity (HEK-293T) was “Non-toxic”. For the same molecule, the inhibition (N9 [27]) was “Active”, the IC50 [28] was 16.2 µM and the inhibition (N9 [29]) was “Dose-dependent-effect”. The inhibition (N9 [30]) was “Dose-dependent-effect” and the Stability [31] was “Stable”.
